Assay [1] addresses T1, IKKε (Homo sapiens, UniProt Q14164).
T1 construct: His-tag; made in house; host or cells: Sf9 insect cells
T1 sequence (Q14164 1-716): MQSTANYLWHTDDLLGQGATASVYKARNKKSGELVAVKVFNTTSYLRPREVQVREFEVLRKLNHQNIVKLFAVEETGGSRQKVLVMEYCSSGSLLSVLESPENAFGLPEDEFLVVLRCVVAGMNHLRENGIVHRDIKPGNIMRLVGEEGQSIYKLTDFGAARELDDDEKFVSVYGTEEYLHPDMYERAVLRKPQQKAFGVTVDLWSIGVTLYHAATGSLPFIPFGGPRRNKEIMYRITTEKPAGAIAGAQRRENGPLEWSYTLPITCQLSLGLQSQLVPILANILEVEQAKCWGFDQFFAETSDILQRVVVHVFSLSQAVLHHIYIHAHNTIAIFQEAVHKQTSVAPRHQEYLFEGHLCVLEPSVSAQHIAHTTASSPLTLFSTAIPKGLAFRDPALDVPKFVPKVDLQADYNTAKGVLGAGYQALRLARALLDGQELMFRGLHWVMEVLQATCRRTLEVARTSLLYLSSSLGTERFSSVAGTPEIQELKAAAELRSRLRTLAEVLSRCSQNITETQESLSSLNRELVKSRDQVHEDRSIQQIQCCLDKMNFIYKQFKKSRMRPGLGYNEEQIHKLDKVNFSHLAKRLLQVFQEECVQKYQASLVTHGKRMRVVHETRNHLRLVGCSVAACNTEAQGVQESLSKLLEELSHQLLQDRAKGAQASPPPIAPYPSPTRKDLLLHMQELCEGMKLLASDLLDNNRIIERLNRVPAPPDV
Kind of assay: In-vitro IKKε kinase assay ([γ33]ATP filter-plate). It is filed as biochemical. In a few lines:
(§1)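 His-tagged Sf9-expressed kinases at 0.1 or 0.02 μg/ml (TBK1) and 0.1 or 0.015 μg/ml (IKKε) for normal and sensitized formats, with myelin basic protein or casein substrate. ATP was at 2×Km (60 μM TBK1, 32 μM IKKε) plus 0.3 μCi [γ33]ATP. Reactions ran 30-45 min, were captured on P-81 filters, and counts were normalized to DMSO.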

Assay [2] deals with T2, TBK1 (Homo sapiens, UniProt Q9UHD2).
T2 construct: His-tag; made in house; host or cells: Sf9 insect cells
T2 sequence (Q9UHD2 1-729): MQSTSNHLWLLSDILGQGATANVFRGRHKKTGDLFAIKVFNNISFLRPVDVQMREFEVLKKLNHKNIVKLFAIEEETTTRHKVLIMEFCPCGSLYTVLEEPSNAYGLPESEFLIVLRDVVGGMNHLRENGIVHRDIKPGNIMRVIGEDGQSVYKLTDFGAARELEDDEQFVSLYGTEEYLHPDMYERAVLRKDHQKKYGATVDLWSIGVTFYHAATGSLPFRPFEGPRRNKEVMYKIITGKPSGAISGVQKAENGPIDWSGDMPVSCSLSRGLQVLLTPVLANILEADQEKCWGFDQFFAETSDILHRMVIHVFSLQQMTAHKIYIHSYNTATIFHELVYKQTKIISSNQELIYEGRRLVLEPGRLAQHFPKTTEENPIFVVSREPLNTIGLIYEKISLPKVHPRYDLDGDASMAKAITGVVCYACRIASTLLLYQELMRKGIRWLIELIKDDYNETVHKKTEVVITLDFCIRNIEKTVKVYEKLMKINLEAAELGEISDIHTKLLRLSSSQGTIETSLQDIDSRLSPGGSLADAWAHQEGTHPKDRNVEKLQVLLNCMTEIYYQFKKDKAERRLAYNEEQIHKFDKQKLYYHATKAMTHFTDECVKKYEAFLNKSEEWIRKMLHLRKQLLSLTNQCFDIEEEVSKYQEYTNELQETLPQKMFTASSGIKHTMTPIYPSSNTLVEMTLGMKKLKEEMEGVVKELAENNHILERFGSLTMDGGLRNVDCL
The assay is described as follows: In-vitro TBK1 kinase assay ([γ33]ATP filter-plate). Type of assay: biochemical. In outline: as §1

Assay [3] deals with IKKε-mediated phosphorylation of IRF3. The assay is described as follows: In-situ phosphorylation of IRF3 (pIRF3 Ser396 ELISA) in HEK293T cells cotransfected with IRF3 and IKKε. It is filed as cell-based. Particulars: Homo sapiens, HEK-293T. The method, then:
HEK293T cells were cotransfected in a 10-cm dish with IRF3 and IKKε expression plasmids using Lipofectamine 2000 (Invitrogen, Carlsbad, Calif.). The following day, cells were replated at 20,000 per well in 96-well plates and treated with test compounds (compounds according to Formula I) for 20 hours. Cell lysates were prepared and analyzed using an ELISA for phospho-Ser396 (anti-IRF3 capture antibody, Santa Cruz Biotechnology, Inc., Santa Cruz, Calif.; anti-p-Ser396 IRF3 detection antibody, Cell Signaling, Danvers, Mass.). pIRF3 levels in compound treated cells were normalized to DMSO treated cells (no compound). Cell viability was assayed in a parallel set of plates to monitor cytotoxic effects of the test compounds (CellTiter-Glo, Promega, Inc., Madison, Wis.). TBK1 activity was tested by Western blotting using a phospho-specific IRF7 antibody. Similar to above, HEK293T cells were transfected with IRF7 and TBK1 expression plasmids. Cells were seeded in 12-well plates at 150,000 per well and treated overnight with test compounds. Protein lysates were prepared and processed for Western blotting followed by detection using a phosphor-Ser477/Ser479 IRF7 antibody (BD Biosciences, San Jose, Calif.)
For orientation: In an ELISA, binding on a coated surface is turned into a signal by an enzyme label.

Where [4] appears, read: text bins, read-out: IC50 for inhibition of the kinase activity of IKKε.
[5] abbreviates: text bins, read-out: IC50 for inhibition of the kinase activity of TBK1.
The mark [6] stands for this setting: HEK293T cells in culture, Table 3, read-out: pIRF3 ELISA IC50.
[7] abbreviates: HEK293T cells, 20 hours, text bins, read-out: IC50 for inhibition of the in-situ IKKε-mediated phosphorylation of IRF3.

Where two headings read alike, the source gives them in different places.

What is called IC50 is the concentration that inhibits the measured activity by half. Consider `COc1cc(Nc2nccc(-c3ccc(OC4CCOCC4)c(C#N)c3)n2)ccc1C(=O)NCCN(C)C` [Example 2, 4-({4-[3-cyano-4-(tetrahydero-2H-pyran-4-yloxy)phenyl]pyrimidin-2-yl}amino)-N-[2-(dimethylamino)ethyl]-2-methoxybenzamide], for which the IC50 in assay [1] (Table 3, read-out: IKKε IC50) is 0.0011 µM; in assay [1] (setting [4]) it was under 0.005 µM; in assay [2] (Table 3, read-out: TBK1 IC50) it was 0.0004 µM; in assay [2] (setting [5]) it was under 0.01 µM; in assay [3] (setting [6]), 0.0719 µM; in assay [3] (setting [7]) it was under 0.1 µM.

Consider `CN(C)CCCNS(=O)(=O)c1ccc(Nc2nccc(-c3ccc(OC4CCOCC4)c(C#N)c3)n2)cc1` [Example 3, 4-({4-[3-cyano-4-(tetrahydro-2H-pyran-4-yloxy)phenyl]pyrimidin-2-yl}amino)-N-[3-(dimethylamino)propyl] benzenesulfonamide], for which the IC50 in assay [1] (Table 3, read-out: IKKε IC50) is 0.0028 µM; in assay [1] (setting [4]) it was under 0.005 µM; in assay [2] (Table 3, read-out: TBK1 IC50), 0.0002 µM; in assay [2] (setting [5]) it was under 0.01 µM; in assay [3] (setting [6]), 0.28 µM; in assay [3] (setting [7]), 0.25 to 0.5 µM.

With `Cc1cc(Nc2nccc(-c3ccc(OC4CCOCC4)c(C#N)c3)n2)ccc1N1CCOCC1` [Example 18, 5-(2-{[3-methyl-4-(morpholin-4-yl)phenyl]amino}pyrimidin-4-yl)-2-(tetrahydro-2H-pyran-4-yloxy)benzonitrile], the values for the IC50 in assay [1] (setting [4]), in assay [2] (setting [5]) and in assay [3] (setting [7]) were under 0.005 µM, under 0.01 µM and 0.1 to 0.25 µM, respectively.

As to `CN1CCN(C(=O)Nc2ccc(Nc3nccc(-c4ccc(OC5CCOCC5)c(C#N)c4)n3)cc2)CC1` [Example 20, N-[4-({4-[3-cyano-4-(tetrahydro-2H-pyran-4-yloxy)phenyl]pyrimidin-2-yl}amino)phenyl]-4-methylpiperazine-1-carboxamide], the IC50 in assay [1] (setting [4]) is under 0.005 µM; in assay [2] (setting [5]), under 0.01 µM; in assay [3] (setting [7]) it was 0.25 to 0.5 µM.

For the compound `COc1cc(Nc2nccc(-c3ccc(OC4CCOCC4)c(C#N)c3)n2)ccc1OCCOCCN` [Example 21, 5-[2-({4-[2-(2-aminoethoxy)ethoxy]-3-methoxyphenyl}amino)pyrimidin-4-yl]-2-(tetrahydro-2H-pyran-4-yloxy)benzonitrile], the IC50 in assay [1] (setting [4]) is under 0.005 µM; in assay [2] (setting [5]), under 0.01 µM; in assay [3] (setting [7]), under 0.1 µM.

In the case of `Cc1cn(Cc2cccc(Nc3nccc(-c4ccc(OC5CCOCC5)c(C#N)c4)n3)c2)cn1` [compound 653, 5-[2-({3-[(4-Methyl-1H-imidazol-1-yl)methyl]phenyl}amino)pyrimidin-4-yl]-2-(tetrahydro-2H-pyran-4-yloxy)benzonitrile], the IC50 in assay [1] (setting [4]) is under 0.005 µM; in assay [3] (setting [7]), under 0.1 µM.

Regarding `C[C@H](O)C(=O)N1CCC(Oc2ccc(-c3ccnc(Nc4ccc(F)c(OCCN)c4)n3)cc2C#N)CC1` [compound 655], the IC50 is under 0.005 µM in assay [1] (setting [4]) and 0.25 to 0.5 µM in assay [3] (setting [7]).

As to `CC(=O)Nc1cccc(Nc2nccc(-c3ccc(OC4CCOCC4)c(C#N)c3)n2)c1` [compound 656, N-[3-({4-[3-Cyano-4-(tetrahydro-2H-pyran-4-yloxy)phenyl]pyrimidin-2-yl}amino)phenyl] acetamide], the IC50 was under 0.005 µM in assay [1] (setting [4]) and under 0.1 µM in assay [3] (setting [7]).

Regarding `COC1CN(Cc2ccc(Nc3nccc(-c4ccc(O[C@@H]5CCN(C(=O)CO)C5)c(C#N)c4)n3)cc2)C1` [compound 658, 2-{[(3R)-1-(Hydroxyacetyl)pyrrolidin-3-yl]oxy}-5-[2-({4-[(3-methoxyazetidin-1-yl)methyl]phenyl}amino)pyrimidin-4-yl]benzonitrile], the IC50 in assay [1] (setting [4]) is under 0.005 µM; in assay [3] (setting [7]), 0.25 to 0.5 µM.

As for `C[C@@H](O)C(=O)Nc1cccc(Nc2nccc(-c3ccc(OC4CCOCC4)c(C#N)c3)n2)c1` [compound 659, (2R)-N-[3-({4-[3-Cyano-4-(tetrahydro-2H-pyran-4-yloxy)phenyl]pyrimidin-2-yl}amino)phenyl]-2-hydroxypropanamide], the IC50 in assay [1] (setting [4]) is under 0.005 µM; in assay [3] (setting [7]), 0.1 to 0.25 µM.

Turning to `CN(C)CCN(C)c1cccc(Nc2nccc(-c3ccc(OC4CCOCC4)c(C#N)c3)n2)c1` [compound 661], the IC50 in assay [1] (setting [4]) was under 0.005 µM; in assay [3] (setting [7]), under 0.1 µM.

Consider `Cc1cn(Cc2cccc(Nc3nccc(-c4ccc(O[C@@H]5CCN(C(=O)CO)C5)c(C#N)c4)n3)c2)cn1` [compound 662, 2-{[(3R)-1-(Hydroxyacetyl)pyrrolidin-3-yl]oxy}-5-[2-({3-[(4-methyl-1H-imidazol-1-yl)methyl]phenyl}amino)pyrimidin-4-yl]benzonitrile], for which the IC50 in assay [1] (setting [4]) is under 0.005 µM; in assay [3] (setting [7]), under 0.1 µM.

Regarding `COc1cc(Nc2nccc(-c3ccc(OC4CCOCC4)c(C#N)c3)n2)ccc1-n1cnnn1` [compound 664, 5-(2-{[3-Methoxy-4-(1H-tetrazol-1-yl)phenyl]amino}pyrimidin-4-yl)-2-(tetrahydro-2H-pyran-4-yloxy)benzonitrile], the IC50 is under 0.005 µM in assay [1] (setting [4]) and under 0.1 µM in assay [3] (setting [7]).

Consider `CN(C)C1CCN(C(=O)Nc2cccc(Nc3nccc(-c4ccc(OC5CCOCC5)c(C#N)c4)n3)c2)C1` (stereo not drawn) [compound 667, N-[3-({4-[3-Cyano-4-(tetrahydro-2H-pyran-4-yloxy)phenyl]pyrimidin-2-yl}amino)phenyl]-3-(dimethylamino) pyrrolidine-1-carboxamide], for which the IC50 is under 0.005 µM in assay [1] (setting [4]) and under 0.1 µM in assay [3] (setting [7]).

With `COC1CN(C(=O)Nc2cccc(Nc3nccc(-c4ccc(OC5CCOCC5)c(C#N)c4)n3)c2)C1` [compound 668, N-[3-({4-[3-Cyano-4-(tetrahydro-2H-pyran-4-yloxy)phenyl]pyrimidin-2-yl}amino)phenyl]-3-methoxyazetidine-1-carboxamide], the figures for the IC50 in assay [1] (setting [4]) and in assay [3] (setting [7]) were under 0.005 µM and 0.25 to 0.5 µM, respectively.

In the case of `N#Cc1cc(-c2ccnc(Nc3cccc(N4CCC[C@H]4CO)c3)n2)ccc1O[C@@H]1CCN(C(=O)CO)C1` [compound 669, 2-{[(3R)-1-(Hydroxyacetyl)pyrrolidin-3-yl]oxy}-5-[2-({3-[(2S)-2-(hydrfoxymethyl)pyrrolidin-1-yl]phenyl}amino)pyrimidin-4-yl]benzonitrile], the concentration for half-maximal inhibition (IC50) in assay [1] (setting [4]) is under 0.005 µM; in assay [3] (setting [7]), 0.1 to 0.25 µM.

Consider `N#Cc1cc(-c2ccnc(Nc3ccc(F)c(OC4CCNC4)c3)n2)ccc1OCC1CC1` (stereo not drawn) [compound 670, 2-(Cyclopropyl-methoxy)-5-(2-{[4-fluoro-3-(pyrrolidin-3-yloxy)phenyl]amino}pyrimidin-4-yl)benzonitrile], for which the IC50 is under 0.005 µM in assay [1] (setting [4]) and 0.25 to 0.5 µM in assay [3] (setting [7]).

The values are drawn from US20150352108A1, “AMINO-PYRIMIDINE COMPOUNDS AS INHIBITORS OF TBK1 AND/OR IKK EPSILON” (Alzheimer's Institute of America, priority 2009, published 2015).
